# Results from US20240335407A1, “PHARMACEUTICAL COMPOSITION AND USE THEREOF” (NEURODAWN PHARMACEUTICAL CO., LTD., priority 2021, published 2024).
# Key:
# [1] = tested on: neuropathic pain induced by separate L5 spinal nerve ligation (SNL); test: Mechanical pain threshold (MWT) in the L5 spinal nerve ligation (SNL) model of neuropathic pain, with synergy analysis (Jin Zhengjun q, CompuSyn CI); format: in vivo, Sprague-Dawley (SD) rats; details: Example 1, Mean ± SEM
# Description: In this experiment, the model of neuropathic pain induced by separate L5 spinal nerve ligation (SNL) was adopted. Animals were anesthetized with 7% chloral hydrate (dosage: 420 mg/kg, intraperitoneal injection), and the limbs of rats were fixed in a prone position. The rats were placed under dissecting microscope with the back hair-cut off, then wiped and disinfected with alcohol. An incision about 2-3 cm long was cut on the right side of the dorsal spine, and the two spinal nerves L4 and L5 were exposed, the spinal nerve L5 was lightly ligated with 6-0 braided line to avoid damage to the contiguous spinal nerves. Double-layer suture was performed on the back incisions of the experimental animals, and disinfected with iodophor, then the experimental animals were gently put into a feeding cage, allowed to free access to movement, eating and drinking.
# Mechanical withdrawal threshold (MWT) of all experimental animals was measured by mechanical automatic stimulated needle. The experimental animals were placed in a transparent plexiglass box with iron gauze at the bottom, and after acclimatization for 30 minutes, the vola of the hind limbs of the experimental animals were stimulated with a stimulated needle at a uniform speed, and the reaction threshold when rats rapidly retracted or shook their feet was recorded (as MWT), which was the mechanical pain threshold of the animals.
# The basic mechanical pain threshold of each experimental animal was measured for 2 days […], and the basic mechanical pain threshold of experimental animals was the average of two values. […]
# The L5-SNL model was prepared by selecting SD rats with appropriate weight, and the measurement of postoperative mechanical pain threshold was started at least 7 days after modeling. […] The experimental model animals were administered corresponding drugs or solvents, and the mechanical pain threshold of animals was measured at 0.5 h and 3 h after administration. […]
# [2] = tested on: neuropathic pain induced by separate L5 spinal nerve ligation (SNL); test: as above; format: in vivo, Sprague-Dawley (SD) rats; details: Mean ± SEM
# [3] = Example 1, 0.5 mg/kg intraperitoneal
# [4] = Example 2, 1 mg/kg intraperitoneal
# [5] = Example 2, 20 mg/kg intraperitoneal
# [6] = Example 3, 3 mg/kg intraperitoneal
# [7] = Example 3, 18 mg/kg intraperitoneal
# [8] = Example 3, 30 mg/kg intraperitoneal
# [9] = Example 4, 3 mg/kg intraperitoneal
# [10] = Example 4, 9 mg/kg intraperitoneal
# [11] = Example 4, 18 mg/kg intraperitoneal
# [12] = Example 5, 3 mg/kg intraperitoneal
# [13] = Example 5, 6 mg/kg intraperitoneal
# [14] = Example 5, 9 mg/kg intraperitoneal
# [15] = Example 6, 6 mg/kg intraperitoneal
# [16] = Example 2, 10 mg/kg intraperitoneal
# [17] = Example 3, 12 mg/kg intraperitoneal
# [18] = Example 4, 6 mg/kg intraperitoneal
# [19] = Example 4, 12 mg/kg intraperitoneal
# [20] = Example 6, 7.5 mg/kg intraperitoneal
# [21] = Example 6, 10 mg/kg intraperitoneal
compound,measurement,setting,value
"CC(C)C[C@H](CN)CC(=O)O [pregabalin, (S)-3-aminomethyl-5-methylhexanoic acid]",pain threshold at 0.5 h after administration,[1]; 25 mg/kg intraperitoneal,17.41 ± 0.58 g
same,pain threshold at 0.5 h after administration,[2]; [3],15.48 ± 1.27 g
same,pain threshold at 3 h after administration,[2]; [3],15.54 ± 1.15 g
same,pain threshold at 3 h after administration,"[2]; Example 1, 25 mg/kg intraperitoneal",24.65 ± 0.34 g
same,pain threshold at 0.5 h after administration,[2]; [4],15.57 ± 1.04 g
same,pain threshold at 3 h after administration,[2]; [4],15.68 ± 1.32 g
same,pain threshold at 0.5 h after administration,[2]; [5],17.04 ± 0.54 g
same,pain threshold at 3 h after administration,[2]; [5],24.76 ± 0.73 g
same,pain threshold at 0.5 h after administration,[2]; [6],15.19 ± 1.31 g
same,pain threshold at 3 h after administration,[2]; [6],16.75 ± 1.14 g
same,pain threshold at 0.5 h after administration,[2]; [7],16.36 ± 1.35 g
same,pain threshold at 3 h after administration,[2]; [7],23.92 ± 1.30 g
same,pain threshold at 0.5 h after administration,[2]; [8],18.05 ± 0.73 g
same,pain threshold at 3 h after administration,[2]; [8],26.13 ± 0.91 g
same,pain threshold at 0.5 h after administration,[2]; [9],15.24 ± 0.95 g
same,pain threshold at 3 h after administration,[2]; [9],16.96 ± 1.22 g
same,pain threshold at 0.5 h after administration,[2]; [10],15.03 ± 1.21 g
same,pain threshold at 3 h after administration,[2]; [10],21.13 ± 1.13 g
same,pain threshold at 0.5 h after administration,[2]; [11],16.26 ± 0.74 g
same,pain threshold at 3 h after administration,[2]; [11],24.54 ± 0.56 g
same,pain threshold at 0.5 h after administration,[2]; [12],15.35 ± 0.57 g
same,pain threshold at 3 h after administration,[2]; [12],16.73 ± 1.15 g
same,pain threshold at 0.5 h after administration,[2]; [13],15.24 ± 1.15 g
same,pain threshold at 3 h after administration,[2]; [13],19.15 ± 1.21 g
same,pain threshold at 0.5 h after administration,[2]; [14],15.78 ± 0.83 g
same,pain threshold at 3 h after administration,[2]; [14],21.66 ± 0.79 g
same,pain threshold at 0.5 h after administration,[2]; [15],17.39 ± 1.26 g
same,pain threshold at 3 h after administration,[2]; [15],19.62 g
same,pain threshold at 6 h after administration,[2]; [15],19.49 g
same,pain threshold at 8 h after administration,[2]; [15],19.26 g
same,pain threshold at 0.5 h after administration,"[2]; Example 6, 20 mg/kg intraperitoneal",17.53 ± 1.33 g
same,pain threshold at 0.5 h after administration,"[2]; Example 6, 30 mg/kg intraperitoneal",18.65 ± 1.24 g
Nc1nc2ccc(OC(F)(F)F)cc2s1 [riluzole],pain threshold at 3 h after administration,"[1]; 0.5 mg/kg intraperitoneal, 3 h",14.04 ± 0.91 g
same,pain threshold at 0.5 h after administration,[1]; 10 mg/kg intraperitoneal,21.56 ± 1.24 g
same,pain threshold at 0.5 h after administration,[2]; [3],14.25 ± 0.90 g
same,pain threshold at 3 h after administration,"[2]; Example 1, 10 mg/kg intraperitoneal",19.87 ± 0.92 g
same,pain threshold at 0.5 h after administration,[2]; [4],14.08 ± 0.92 g
same,pain threshold at 3 h after administration,[2]; [4],14.01 ± 0.99 g
same,pain threshold at 0.5 h after administration,[2]; [16],21.79 ± 1.33 g
same,pain threshold at 3 h after administration,[2]; [16],20.63 ± 1.12 g
same,pain threshold at 0.5 h after administration,[2]; [6],15.48 ± 0.92 g
same,pain threshold at 3 h after administration,[2]; [6],15.16 ± 1.31 g
same,pain threshold at 0.5 h after administration,[2]; [17],22.54 ± 1.33 g
same,pain threshold at 3 h after administration,[2]; [17],21.69 ± 1.12 g
same,pain threshold at 0.5 h after administration,[2]; [9],15.43 ± 0.69 g
same,pain threshold at 3 h after administration,[2]; [9],15.03 ± 0.79 g
same,pain threshold at 0.5 h after administration,[2]; [18],18.47 ± 0.37 g
same,pain threshold at 3 h after administration,[2]; [18],17.47 ± 0.73 g
same,pain threshold at 0.5 h after administration,[2]; [19],22.54 ± 1.33 g
same,pain threshold at 3 h after administration,[2]; [19],21.69 ± 1.12 g
same,pain threshold at 0.5 h after administration,[2]; [12],15.35 ± 0.58 g
same,pain threshold at 3 h after administration,[2]; [12],14.98 ± 0.84 g
same,pain threshold at 0.5 h after administration,[2]; [13],18.21 ± 0.47 g
same,pain threshold at 3 h after administration,[2]; [13],17.45 ± 0.46 g
same,pain threshold at 0.5 h after administration,[2]; [15],22.96 g
same,pain threshold at 3 h after administration,[2]; [15],15.74 ± 0.93 g
same,pain threshold at 6 h after administration,[2]; [15],15.08 ± 0.77 g
same,pain threshold at 8 h after administration,[2]; [15],14.95 ± 0.81 g
same,pain threshold at 3 h after administration,[2]; [20],16.44 ± 1.07 g
same,pain threshold at 6 h after administration,[2]; [20],16.52 ± 1.06 g
same,pain threshold at 8 h after administration,[2]; [20],15.49 ± 1.18 g
same,pain threshold at 3 h after administration,[2]; [21],17.89 ± 1.16 g
same,pain threshold at 6 h after administration,[2]; [21],17.46 ± 1.23 g
same,pain threshold at 8 h after administration,[2]; [21],16.93 ± 1.15 g
